In brackets after ≈: the same amount, converted by molar mass. Like-named read-outs stand apart in the source and are kept apart here.

Experimental findings from patent US20050107430A1, “Antimicrobial and antiviral compounds” (priority 2003, published 2005) are described below.

The test system of this test is Mycobacterium tuberculosis. The conditions noted are these: resistant strains.

On to `c1ccc2c(c1)ccc1c3ccc(NCCCCN4CCCCC4)cc3ccc21` [Tx-5, N-(2′-chrysenyl)-4-(1′-piperidinyl)-butane-1,4-diamine], for which the “MIC, M. tuberculosis resisant. strains” value is, setting by setting: (2 wk) 2 µg/mL (≈ 5.23 µM); (4 wk) 4 µg/mL (≈ 10.5 µM).
